Data: patent US10683121B2, “Method for preparation of research organisms” (BIOSYSTEMS TECHNOLOGY LIMITED, priority 2015, dated 2020)
Read-outs that look alike come from different tables or passages of the source.

Experiments:
[1] = system: culturable microorganisms on the surface of G. mellonella larvae; assay: Measurement of surface contamination of larvae after alcohol decontamination (PBS wash plated on LB agar); format: cell-based; details: for percentage reduction in surface contaminants compared to control: n=10 (FIG. 1)
Experimental: Individual G. mellonella larva from groups of 10 were immersed thrice into 1 ml of PBS using sterilised forceps. The PBS wash was serially diluted, plated onto Luria Broth (LB) agar and incubated at 37° C. for 24 h. Any colonies of organisms visible after this period were counted. They may optionally be identified to species level, for example by use of 16S RNA sequencing. Ethanol was diluted with sterile water to 70% or 50% (v/v). We tested two different decontamination techniques. […] To assess the microbial flora after decontamination, we used the PBS washing method outlined above. Using the “bath” method, different lengths of time for decontamination were tested. […] The PBS was plated on LB agar; plates and G. mellonella larvae were incubated at 37° C. for 24 h. The health of larvae was monitored and contaminants on the plates counted. Further concentrations and decontamination treatment periods were studied. In each case, ten Galleria larvae were used, placed into a sterile mesh tray and immersed using the “dip” method into isopropyl alcohol, methanol or ethanol, prepared to varying concentrations by dilution with sterile water as described above. The treatment conditions were: Larvae were patted dry on paper towel and grasped with sterile forceps dip larvae individually into PBS three times, for measurement of surface contamination as described above.

G. mellonella larvae [2] = details: in vivo
Experimental: The larvae were used within two weeks of arrival. […] Larvae in a weight range between 0.2-0.3 g and light cream in colour were selected for experiments. […] The injection was performed into the right foreleg.
Using the “bath” method, different lengths of time for decontamination were tested. Using sterile tweezers each larvae was rolled in 20 ml of 50% ethanol for 10 s, 20 s, 30 s or 60 s, patted dry with blue roll and dipped in sterile PBS. The PBS was plated on LB agar; plates and G. mellonella larvae were incubated at 37° C. for 24 h. The health of larvae was monitored and contaminants on the plates counted.
Further concentrations and decontamination treatment periods were studied. In each case, ten Galleria larvae were used, placed into a sterile mesh tray and immersed using the “dip” method into isopropyl alcohol, methanol or ethanol, prepared to varying concentrations by dilution with sterile water as described above. The treatment conditions were:
These contaminants can be introduced into the larva haemolymph through the injection point when challenging larvae. We believe that the deaths we have seen in past experiments in control groups challenged with PBS was a consequence of the introduction of this microbial flora into the body cavity of the larvae. Deaths in control groups can make the interpretation of results from test groups difficult. Therefore, the plan in this study was to identify a way of surface decontaminating the larvae, so that deaths in control groups were avoided, and therefore improving the quality of the data obtained from experiments using G. mellonella larvae. Galleria larvae are scored as dead when there is no movement when gently probed with a pipette tip. Colour is also an indicator of a response to infection or injury as such larvae produce melanin which creates a colour change of cream to pale or dark brown (4).

G. mellonella larvae [3] = details: single 20 s bath exposure to 50% (v/v), 24 hours
Experimental: Final instar G. mellonella larvae were obtained from Live Foods UK and kept on woodchip at 15° C. until use. The larvae were used within two weeks of arrival. The Galleria larvae were screened for colour, weight and size before use. Larvae in a weight range between 0.2-0.3 g and light cream in colour were selected for experiments. Injections were carried out using a Hamilton syringe with 5 μl dispenser; 10 μl of inoculum was used per larva in each injection. The injection was performed into the right foreleg. Phosphate Buffer Saline (PBS, pH 7.2) was used as a control inoculum as it should not kill or harm the larvae.
We injected larvae with PBS before or after decontamination. […] For the second group, only 10 μl PBS was injected into the right foreleg, with no preliminary decontamination. All larvae were placed into an incubator at 37° C. for 24 h and monitored for health and survival.
Finally, we investigated whether decontamination of the larvae improved the survival of larvae which were subsequently injected with PBS. […] These larvae were dried and then injected 10 μl PBS into the right foreleg. The larvae were placed at 37° C. and survival recorded over the next 24 hours.

## CCO [Ethanol, ethanol]
[1]; 40%, 20 s immersion (dip)
  % reduction in microbial surface contamination: 95.7%
[1]; 40%, 40 s immersion (dip)
  % reduction in microbial surface contamination: 99.2%
[1]; 50% ethanol, bath technique
  percentage reduction in surface contaminants compared to control: 99.99%
[1]; 50% ethanol, dip technique
  percentage reduction in surface contaminants compared to control: 99.99%
[1]; 50%, 20 s immersion (dip)
  % reduction in microbial surface contamination: 99.0%
[1]; 50%, 40 s immersion (dip)
  % reduction in microbial surface contamination: 98.9%
[1]; 50%, 50 s immersion (dip)
  % reduction in microbial surface contamination: 99.4%
[1]; 60%, 20 s immersion (dip)
  % reduction in microbial surface contamination: 98.4%
[1]; 60%, 40 s immersion (dip)
  % reduction in microbial surface contamination: 99.1%
[1]; 70% ethanol, bath technique
  percentage reduction in surface contaminants compared to control: 99.98%
[1]; 70% ethanol, dip technique
  percentage reduction in surface contaminants compared to control: 99.52%
G. mellonella larvae [2]; Galleria mellonella, 40 %
  larval survival 24 hrs: 10/10
  larval survival 72 hrs: 10/10
G. mellonella larvae [2]; Galleria mellonella, 50 %
  larval survival 24 hrs: 10/10
  larval survival 72 hrs: 10/10
G. mellonella larvae [2]; Galleria mellonella, 60 %
  larval survival 24 hrs: 10/10
G. mellonella larvae [2]; Galleria mellonella, 48 h, 40 %
  larval survival 48 hrs: 10/10
G. mellonella larvae [2]; Galleria mellonella, 48 h, 50 %
  larval survival 48 hrs: 10/10
G. mellonella larvae [2]; Galleria mellonella, 48 h, 50 % (v/v)
  Observations at 48 h (death): 15% death
G. mellonella larvae [2]
  Observations at 48 h: No death or pigment change
G. mellonella larvae [3]; 10 μl PBS into right foreleg, 37° C., groups of 10
  groups of larvae with 100% survival after PBS injection: 19/20
G. mellonella larvae [3]; PBS injection
  reduction in deaths versus un-decontaminated larvae injected with PBS: 83%

## CO [Methanol, methanol]
[1]; 50%, 20 s immersion (dip)
  % reduction in microbial surface contamination: 99.0%
[1]; 50%, 40 s immersion (dip)
  % reduction in microbial surface contamination: 99.7%
[1]; 70%, 20 s immersion (dip)
  % reduction in microbial surface contamination: 99.9%
[1]; 70%, 40 s immersion (dip)
  % reduction in microbial surface contamination: 99.9%

## CC(C)O [Isopropyl alcohol, isopropanol]
[1]; 50%, 20 s immersion (dip)
  % reduction in microbial surface contamination: 99.9%
[1]; 50%, 40 s immersion (dip)
  % reduction in microbial surface contamination: 99.9%
[1]; 70%, 20 s immersion (dip)
  % reduction in microbial surface contamination: 99.9%
[1]; 70%, 40 s immersion (dip)
  % reduction in microbial surface contamination: 99.8%
